Laboratory results: patent publication US20180153168A1, “A PRIMER FOR PESTICIDES” (PANGAEA AGROCHEMICALS LIMITED, priority 2015, published 2018)
Read-outs that look alike come from different tables or passages of the source.

Experiments:
[1] = tested on: clodinafop resistant strains of blackgrass
Experimental: Further experiments were carried out using clodinafop resistant strains of blackgrass.
Daytime temperature of 11° C. Night time temperature of 8° C.

plant crop = settings: optimised dose rate
Experimental: Preferably, the time delay is from 1 to 24 hours, preferably from 2 to 8 hours. However, the time delay required varies with temperature and dose rate. […] (these time delays assume an optimised dose rate).

pollen beetle = settings: with insecticides
white fly = settings: with insecticides
plants = settings: applied alone, in the absence of any active ingredients; cited from earlier work
[2] = tested on: glyphosate resistant strain of Italian ryegrass; assay: Control of glyphosate resistant Italian ryegrass, piperonyl butoxide pre-treatment then glyphosate (Western Australia); assay type: in vivo; settings: glyphosate without piperonyl butoxide; 8 replicated trials; FIG. 1
[3] = piperonyl butoxide 320 grams per ha then clodinafop 250 g ai/ha, daytime 11° C., night 8° C., FIG. 9

Compound	optimum delay ([1]; early autumn trials, ambient temperature of the order of 18° C.) [h]	delays showing high levels of control [1, 3] [h]	optimum delay for efficacy [1, 3]	optimum time delay (plant crop; 11° C.) [h]	optimum time delay (plant crop; 15° C.) [h]	optimum time delay (plant crop; 25° C.) [h]	optimum delay for application (pollen beetle)	optimum delay for application (white fly) [h]	toxicity to plants (plants)	level of control [2]
CCCCOCCOCCOCc1cc2c(cc1CCC)OCO2 [piperonyl butoxide]	2 to 8	8 to 16	approximately 8 hours	8	4	2.5	approximately 1 hour	~8	not detectable	
O=C(O)CNCP(=O)(O)O [glyphosate]										minimal
